Experimental data: PubChem BioAssay (NCI)
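Five compound concentrations were applied to cells in 96-well plates for 48 hours; endpoints were derived by simple linear interpolation of the resulting dose-response curve. GI50 marks 50% less growth. The concentration for full growth arrest is given as TGI.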

How the values were obtained:
Experiment in all cases: DTP human tumour cell line panel, 48 h
UACC-257 melanoma = system: UACC-257 melanoma
HCT-116 colon = system: HCT-116 colon
OVCAR-3 ovarian = system: OVCAR-3 ovarian
OVCAR-4 ovarian = system: OVCAR-4 ovarian
SN12C renal = system: SN12C renal
SNB-19 CNS = system: SNB-19 CNS
A498 renal = system: A498 renal
NCI-H23 lung = system: NCI-H23 lung
SF-295 CNS = system: SF-295 CNS
M14 melanoma = system: M14 melanoma
SR leukemia = system: SR leukemia
SW-620 colon = system: SW-620 colon
SF-539 CNS = system: SF-539 CNS
NCI-H460 lung = system: NCI-H460 lung
HOP-62 NSCLC = system: HOP-62 NSCLC
MOLT-4 leukemia = system: MOLT-4 leukemia
MALME-3M melanoma = system: MALME-3M melanoma
COLO 205 colon = system: COLO 205 colon
T-47D breast = system: T-47D breast
ACHN renal = system: ACHN renal
786-0 renal = system: 786-0 renal
RXF 393 renal = system: RXF 393 renal
UO-31 renal = system: UO-31 renal
SK-OV-3 ovarian = system: SK-OV-3 ovarian
CCRF-CEM leukemia = system: CCRF-CEM leukemia
BT-549 breast = system: BT-549 breast
A549 NSCLC = system: A549 NSCLC
PC-3 prostate = system: PC-3 prostate
IGROV1 ovarian = system: IGROV1 ovarian
SNB-75 CNS = system: SNB-75 CNS
OVCAR-8 ovarian = system: OVCAR-8 ovarian
MDA-MB-435 = system: MDA-MB-435
DU-145 prostate = system: DU-145 prostate
SK-MEL-28 melanoma = system: SK-MEL-28 melanoma
MCF7 breast = system: MCF7 breast
HCC-2998 colon = system: HCC-2998 colon
HT29 colon = system: HT29 colon
RPMI-8226 leukemia = system: RPMI-8226 leukemia
LOX IMVI melanoma = system: LOX IMVI melanoma
NCI-H522 lung = system: NCI-H522 lung
SK-MEL-2 melanoma = system: SK-MEL-2 melanoma
KM12 colon = system: KM12 colon
OVCAR-5 ovarian = system: OVCAR-5 ovarian
NCI/ADR-RES ovarian = system: NCI/ADR-RES ovarian
HS 578T breast = system: HS 578T breast
HCT-15 colon = system: HCT-15 colon
SK-MEL-5 melanoma = system: SK-MEL-5 melanoma
NCI-H226 lung = system: NCI-H226 lung
SF-268 CNS = system: SF-268 CNS
UACC-62 melanoma = system: UACC-62 melanoma
MDA-MB-231 breast = system: MDA-MB-231 breast
U251 CNS = system: U251 CNS
CAKI-1 renal = system: CAKI-1 renal
K-562 leukemia = system: K-562 leukemia
HOP-92 NSCLC = system: HOP-92 NSCLC
EKVX NSCLC = system: EKVX NSCLC
TK-10 renal = system: TK-10 renal

O=C(O)c1ccc(NS(=O)(=O)c2cccc3cccnc23)cc1
GI50 (UACC-257 melanoma): > 100 µM
TGI (UACC-257 melanoma): > 100 µM
GI50 (HCT-116 colon): > 100 µM
TGI (HCT-116 colon): > 100 µM
GI50 (OVCAR-3 ovarian): > 100 µM
TGI (OVCAR-3 ovarian): > 100 µM
GI50 (OVCAR-4 ovarian): > 100 µM
TGI (OVCAR-4 ovarian): > 100 µM
GI50 (SN12C renal): > 100 µM
TGI (SN12C renal): > 100 µM
GI50 (SNB-19 CNS): > 100 µM
TGI (SNB-19 CNS): > 100 µM
GI50 (A498 renal): > 100 µM
TGI (A498 renal): > 100 µM
GI50 (NCI-H23 lung): > 100 µM
TGI (NCI-H23 lung): > 100 µM
GI50 (SF-295 CNS): > 100 µM
TGI (SF-295 CNS): > 100 µM
GI50 (M14 melanoma): > 100 µM
TGI (M14 melanoma): > 100 µM
GI50 (SR leukemia): > 100 µM
TGI (SR leukemia): > 100 µM
GI50 (SW-620 colon): > 100 µM
TGI (SW-620 colon): > 100 µM
GI50 (SF-539 CNS): > 100 µM
TGI (SF-539 CNS): > 100 µM
GI50 (NCI-H460 lung): > 100 µM
TGI (NCI-H460 lung): > 100 µM
GI50 (HOP-62 NSCLC): > 100 µM
TGI (HOP-62 NSCLC): > 100 µM
GI50 (MOLT-4 leukemia): > 100 µM
TGI (MOLT-4 leukemia): > 100 µM
GI50 (MALME-3M melanoma): > 100 µM
TGI (MALME-3M melanoma): > 100 µM
GI50 (COLO 205 colon): > 100 µM
TGI (COLO 205 colon): > 100 µM
GI50 (T-47D breast): > 100 µM
TGI (T-47D breast): > 100 µM
GI50 (ACHN renal): > 100 µM
TGI (ACHN renal): > 100 µM
GI50 (786-0 renal): > 100 µM
TGI (786-0 renal): > 100 µM
GI50 (RXF 393 renal): > 100 µM
TGI (RXF 393 renal): > 100 µM
GI50 (UO-31 renal): > 100 µM
TGI (UO-31 renal): > 100 µM
GI50 (SK-OV-3 ovarian): > 100 µM
TGI (SK-OV-3 ovarian): > 100 µM
GI50 (CCRF-CEM leukemia): > 100 µM
TGI (CCRF-CEM leukemia): > 100 µM
GI50 (BT-549 breast): > 100 µM
TGI (BT-549 breast): > 100 µM
GI50 (A549 NSCLC): > 100 µM
TGI (A549 NSCLC): > 100 µM
GI50 (PC-3 prostate): > 100 µM
TGI (PC-3 prostate): > 100 µM
GI50 (IGROV1 ovarian): > 100 µM
TGI (IGROV1 ovarian): > 100 µM
GI50 (SNB-75 CNS): > 100 µM
TGI (SNB-75 CNS): > 100 µM
GI50 (OVCAR-8 ovarian): > 100 µM
TGI (OVCAR-8 ovarian): > 100 µM
GI50 (MDA-MB-435): > 100 µM
TGI (MDA-MB-435): > 100 µM
GI50 (DU-145 prostate): > 100 µM
TGI (DU-145 prostate): > 100 µM
GI50 (SK-MEL-28 melanoma): > 100 µM
TGI (SK-MEL-28 melanoma): > 100 µM
GI50 (MCF7 breast): > 100 µM
TGI (MCF7 breast): > 100 µM
GI50 (HCC-2998 colon): > 100 µM
TGI (HCC-2998 colon): > 100 µM
GI50 (HT29 colon): > 100 µM
TGI (HT29 colon): > 100 µM
GI50 (RPMI-8226 leukemia): > 100 µM
TGI (RPMI-8226 leukemia): > 100 µM
GI50 (LOX IMVI melanoma): > 100 µM
TGI (LOX IMVI melanoma): > 100 µM
GI50 (NCI-H522 lung): > 100 µM
TGI (NCI-H522 lung): > 100 µM
GI50 (SK-MEL-2 melanoma): > 100 µM
TGI (SK-MEL-2 melanoma): > 100 µM
GI50 (KM12 colon): > 100 µM
TGI (KM12 colon): > 100 µM
GI50 (OVCAR-5 ovarian): > 100 µM
TGI (OVCAR-5 ovarian): > 100 µM
GI50 (NCI/ADR-RES ovarian): > 100 µM
TGI (NCI/ADR-RES ovarian): > 100 µM
GI50 (HS 578T breast): > 100 µM
TGI (HS 578T breast): > 100 µM
GI50 (HCT-15 colon): > 100 µM
TGI (HCT-15 colon): > 100 µM
GI50 (SK-MEL-5 melanoma): > 100 µM
TGI (SK-MEL-5 melanoma): > 100 µM
GI50 (NCI-H226 lung): > 100 µM
TGI (NCI-H226 lung): > 100 µM
GI50 (SF-268 CNS): > 100 µM
TGI (SF-268 CNS): > 100 µM
GI50 (UACC-62 melanoma): > 100 µM
TGI (UACC-62 melanoma): > 100 µM
GI50 (MDA-MB-231 breast): > 100 µM
TGI (MDA-MB-231 breast): > 100 µM
GI50 (U251 CNS): > 100 µM
TGI (U251 CNS): > 100 µM
GI50 (CAKI-1 renal): > 100 µM
TGI (CAKI-1 renal): > 100 µM
GI50 (K-562 leukemia): > 100 µM
TGI (K-562 leukemia): > 100 µM

O=C(Nc1ccc2oc(=O)c(C(=O)O)cc2c1)Oc1ccccc1
TGI (UACC-257 melanoma): > 100 µM
TGI (HCT-116 colon): > 100 µM
TGI (OVCAR-3 ovarian): > 100 µM
TGI (OVCAR-4 ovarian): > 100 µM
TGI (SN12C renal): > 100 µM
TGI (SNB-19 CNS): > 100 µM
TGI (A498 renal): > 100 µM
TGI (NCI-H23 lung): > 100 µM
TGI (SF-295 CNS): > 100 µM
TGI (M14 melanoma): > 100 µM
TGI (SR leukemia): > 100 µM
TGI (SW-620 colon): > 100 µM
TGI (SF-539 CNS): > 100 µM
TGI (NCI-H460 lung): > 100 µM
TGI (HOP-62 NSCLC): > 100 µM
TGI (MOLT-4 leukemia): > 100 µM
TGI (MALME-3M melanoma): > 100 µM
TGI (COLO 205 colon): > 100 µM
TGI (T-47D breast): > 100 µM
TGI (HOP-92 NSCLC): > 100 µM
TGI (ACHN renal): > 100 µM
TGI (786-0 renal): > 100 µM
TGI (RXF 393 renal): > 100 µM
TGI (UO-31 renal): > 100 µM
TGI (SK-OV-3 ovarian): > 100 µM
TGI (BT-549 breast): > 100 µM
TGI (A549 NSCLC): > 100 µM
TGI (PC-3 prostate): > 100 µM
TGI (IGROV1 ovarian): > 100 µM
TGI (SNB-75 CNS): > 100 µM
TGI (OVCAR-8 ovarian): > 100 µM
TGI (MDA-MB-435): > 100 µM
TGI (DU-145 prostate): > 100 µM
TGI (EKVX NSCLC): > 100 µM
TGI (SK-MEL-28 melanoma): > 100 µM
TGI (MCF7 breast): > 100 µM
TGI (TK-10 renal): > 100 µM
TGI (HCC-2998 colon): > 100 µM
TGI (HT29 colon): > 100 µM
TGI (RPMI-8226 leukemia): > 100 µM
TGI (LOX IMVI melanoma): > 100 µM
TGI (NCI-H522 lung): > 100 µM
TGI (SK-MEL-2 melanoma): > 100 µM
TGI (KM12 colon): > 100 µM
TGI (OVCAR-5 ovarian): > 100 µM
TGI (NCI/ADR-RES ovarian): > 100 µM
TGI (HS 578T breast): > 100 µM
TGI (HCT-15 colon): > 100 µM
TGI (SK-MEL-5 melanoma): > 100 µM
TGI (NCI-H226 lung): > 100 µM
TGI (SF-268 CNS): > 100 µM
TGI (UACC-62 melanoma): > 100 µM
TGI (MDA-MB-231 breast): > 100 µM
TGI (U251 CNS): > 100 µM
TGI (CAKI-1 renal): > 100 µM
TGI (K-562 leukemia): > 100 µM
